Test results as given in patent publication US20250177340A1, “Tartaric Acid Analogs and Uses Thereof” (Lapix Therapeutics, Inc., priority 2021, published 2025).

Experiments:
B16F10 melanoma cells [1] = test: Dose-dependent tumor regression in established B16F10 tumors (Example 15); type: in vivo, C57BL6 mice
Experimental: C57BL6 mice received 10^5 B16F10 melanoma cells via SC injection at day 0. Tumor growth was monitored until tumor size reached 200 to 300 mm^3, at which time the mouse was randomized into one of the treatment groups or the control group. Mice were dosed orally until the end of the study.

B16F10 melanoma cells [2] = test: Lung metastasis and survival after IV B16F10 melanoma cells (Example 16); type: in vivo, C57BL6 mice; conditions: 4 mg/mouse orally daily for two weeks
Experimental: C57BL6 mice received 10^5 B16F10 melanoma cells via IV injection at day 0. At day 7, mice were randomized into one of two groups (n=6 per group): an untreated group and a group treated orally with Compound B at 4 mg/mouse daily for two weeks.
At the end of the first week of treatment (14 days after tumor injection), three mice from each group were euthanized, and lung metastasis was counted (FIG. 11A). By the end of the second week of treatment (21 days after tumor injection), two out of the three remaining control mice had died. The remaining control mouse and the three remaining Compound B-treated mice were euthanized, and lung metastasis assessed (FIG. 111B).

[3] = Body weight change in murine melanoma model (Example 13); type: in vivo, mice; conditions: Compound B 4 mg/mouse PO QD x7, Compound C 2.5 mg/mouse IV QD
Experimental: Animals were housed four per cage and had access to food and water ad libitum. Compound B was dissolved in sterile PBS, and pH was adjusted to approximately 7.5. Compound C was first dissolved in DMSO before diluting in sterile PBS. Sterile PBS was used as a control. Compound B was dosed at 4 mg/mouse PO QD. This dose was expected to result in an exposure equivalent to a 1 mg/mouse IV dose. Compound C was dosed at 2.5 mg/mouse IV.
B16F10 melanoma cells were grown in RPMI 1640 media supplemented with 10% FBS and antibiotics (penicillin/streptomycin) using T75 flasks. When cells reached 70-80% confluency, they were treated with 3 ml of 0.25% trypsin/EDTA. Detached cells were harvested. A single-cell suspension was prepared in PBS. A dorsal SC injection of 10^5 cells in mice marked day 0 of the experiment. Animals were monitored daily, and tumors were measured twice a week.

CTLA-4 = test: Percent CTLA-4+/CD8+ T-cells in splenocytes after a single dose, melanoma murine model; type: in vivo, mice
Experimental: (§1) The pharmacodynamic (PD) effects of a single IV dose of Compound B in a melanoma murine model were evaluated. B16F10 melanoma cells were grown in RPMI 1640 media supplemented with 10% FBS and antibiotics (penicillin/streptomycin) using T75 flasks. When cells reached 70-80% confluency, they were treated with 3 ml of 0.25% Trypsin/EDTA. Afterward, detached cells were harvested. A single-cell suspension was prepared in PBS. An IV injection of 10^5 cells in mice marked day −3 of the experiment.
(§2) Animals were housed four per cage, and had access to food and water ad libitum. Compound B was dissolved in sterile PBS, and pH was adjusted to approximately 7.5. Sterile PBS served as control.
(§3) Three days after the IV injection of melanoma cells, animals in the baseline group (n=3) were sacrificed and their spleens were collected for KLRG-1, CTLA-4, and PD-1 analysis. At each predetermined time-point (24, 48, and 120 hours after dosing) three animals from each group were sacrificed for splenocyte analysis of KLRG-1, CTLA-4, and PD-1 expression levels, and expression levels were compared to baseline.
(§4) Spleens collected for splenocyte analysis were prepared into a single-cell suspension for cellular phenotyping by flow cytometry. Cells were stained and gated for CD8. Percent KLRG-1+, CTLA-4+, and PD-1+ CD8+ T-cells were evaluated using flow cytometry.

melanoma cells = test: Tumor growth inhibition and overall survival, two doses of Compound B (Example 14); type: in vivo, mice
Experimental: This study was designed to evaluate the effects of two different doses of Compound B on tumor growth and the overall survival of animals implanted SC with 10^5 melanoma cells. The study was carried out in accordance with the study described in Example 13, except that mice received either placebo, 0.4 mg/mouse PO QD of Compound B for seven days starting at day 7 after tumor implantation, or 4 mg/mouse PO QD of Compound B for seven days starting at day 7 after tumor implantation.

KLRG-1 = test: Percent KLRG-1+/CD8+ T-cells in splenocytes after a single dose, melanoma murine model; type: in vivo, mice
Experimental: as §1, §2, §3, §4
The PD effects of a single IV dose of Compound C were evaluated in a melanoma murine model conducted as described in Example 10. […] This study also evaluated whether Compound C was pharmacodynamically active orally.
In a prior study, Compound C was dosed at 1 mg IV QD for seven days. […] A single PO dose was chosen to confirm oral activity of Compound C. Compound C was dissolved in DMSO, and then diluted in sterile PBS. pH was adjusted to approximately 7.5.
The oral and intravenous PD effects of a single dose of Compound E were evaluated in a melanoma murine model conducted as described in Example 10.
Compound E was dissolved in DMSO, and then diluted in sterile PBS. pH was adjusted to approximately 7.5.

[4] = 0.14 mg/mouse IV single dose, 24 h
[5] = 0.14 mg/mouse IV single dose, 48 h
[6] = 0.14 mg/mouse IV single dose, 120 h
[7] = 0.7 mg/mouse IV single dose, 24 h
[8] = 0.7 mg/mouse IV single dose, 48 h
[9] = 0.7 mg/mouse IV single dose, 120 h
[10] = 1.4 mg/mouse IV single dose, 24 h
[11] = 1.4 mg/mouse IV single dose, 48 h
[12] = 1.4 mg/mouse IV single dose, 120 h

O=C(O)[C@H](O)[C@@H](O)C(=O)OCCCc1ccccc1 [Compound B, (2R,3R)-2,3-dihydroxy-4-oxo-4-(3-phenylpropoxy)butanoic acid]
day by which all animals died of disease (B16F10 melanoma cells [1]; 0.1 mg PO, tumors 200 to 300 mm^3 at start): ≤ 20 days | day by which animals died (B16F10 melanoma cells [1]; 0.4 mg PO): ≤ 30 days | tumor progression versus low-dose group and untreated mice (B16F10 melanoma cells [1]; 0.4 mg PO): progressed more slowly | tumor growth (B16F10 melanoma cells [1]; 1 mg PO): Tumor growth control was observed early on | tumor growth (B16F10 melanoma cells [1]; 4 mg PO): Tumor regression was observed | lung metastasis (B16F10 melanoma cells [2]): controlled (e.g., prevented) metastasis | survival compared to untreated mice (B16F10 melanoma cells [2]): improved survival | greatest measured weight loss [3]: 3% | CTLA-4+/CD8+ T-cells, mean (CTLA-4; [4]): 9.8% | CTLA-4+/CD8+ T-cells, mean (CTLA-4; [5]): 5.3% | CTLA-4+/CD8+ T-cells, mean (CTLA-4; [6]): 11.9% | CTLA-4+/CD8+ T-cells, mean (CTLA-4; [7]): 8.5% | CTLA-4+/CD8+ T-cells, mean (CTLA-4; [8]): 5.7% | CTLA-4+/CD8+ T-cells, mean (CTLA-4; [9]): 12.5% | CTLA-4+/CD8+ T-cells, mean (CTLA-4; [10]): 7.4% | CTLA-4+/CD8+ T-cells, mean (CTLA-4; [11]): 5.6% | CTLA-4+/CD8+ T-cells, mean (CTLA-4; [12]): 11.7% | decrease from baseline in CTLA-4+/CD8+ T-cells (CTLA-4; single IV dose (0.14, 0.7, 1.4 mg), 48 h): approximately 35% | reduction in CTLA-4+/CD8+ T-cells compared to same time point in control group (CTLA-4; single IV injection, 48 h): approximately 38% | efficacy of low dose relative to high-dose (4 mg) treatment (melanoma cells; 0.4 mg PO): 70% | survival (melanoma cells; 0.4 mg and 4 mg/mouse PO QD groups): significant increase in survival | mice tumor-free for at least 10 days after treatment stopped (melanoma cells; 0.4 mg/mouse PO QD for seven days): 70% | mice tumor-free for at least 10 days after treatment stopped (melanoma cells; 4 mg/mouse PO QD for seven days): 90% | KLRG-1+/CD8+ T-cells, mean (KLRG-1; [4]): 6.2% | KLRG-1+/CD8+ T-cells, mean (KLRG-1; [5]): 4.8% | KLRG-1+/CD8+ T-cells, mean (KLRG-1; [6]): 11.4% | KLRG-1+/CD8+ T-cells, mean (KLRG-1; [7]): 6.5% | KLRG-1+/CD8+ T-cells, mean (KLRG-1; [8]): 3.0% | KLRG-1+/CD8+ T-cells, mean (KLRG-1; [9]): 11.7% | KLRG-1+/CD8+ T-cells, mean (KLRG-1; [10]): 7.6% | KLRG-1+/CD8+ T-cells, mean (KLRG-1; [11]): 2.5% | KLRG-1+/CD8+ T-cells, mean (KLRG-1; [12]): 11.3% | time of nadir of exhaustion markers after dosing (KLRG-1; single dose, KLRG-1, CTLA-4, PD-1): 48 h

O=C(O)[C@H](O)[C@@H](O)C(=O)OCCC(c1ccccc1)c1ccccc1 [Compound C, (2R,3R)-4-(3,3-diphenylpropoxy)-2,3-dihydroxy-4-oxobutanoic acid]
greatest measured weight loss [3]: 1.5% | KLRG-1+/CD8+ T-cells, mean (KLRG-1; 0.025 mg/mouse IV single dose, 24 h): 4.9% | KLRG-1+/CD8+ T-cells, mean (KLRG-1; 0.1 mg/mouse IV single dose, 24 h): 4.1% | KLRG-1+/CD8+ T-cells, mean (KLRG-1; 0.25 mg/mouse IV single dose, 24 h): 3.4% | KLRG-1+/CD8+ T-cells, mean (KLRG-1; 1 mg/mouse IV single dose, 24 h): 3.3% | oral pharmacodynamic activity (KLRG-1; 2.5 mg PO single dose): not orally effective at the tested dose | KLRG-1+/CD8+ T-cells, mean (KLRG-1; 2.5 mg/mouse po single dose, 24 h): 4.6% | decrease in KLRG-1+/CD8+ T-cells compared to baseline (KLRG-1; 0.25- and 1-mg IV groups): approximately 15% | decrease in KLRG-1+/CD8+ T-cells compared to time match control (KLRG-1; 0.25- and 1-mg IV groups): approximately 31% | change in KLRG-1+/CD8+ T-cells compared to baseline or control (KLRG-1; remaining groups (0.025, 0.1 mg IV, 2.5 mg PO)): No meaningful changes
